Values quoted from earlier work, collected in publication PMC7315836 (Journal of medicinal chemistry, 2020).
Where two headings read alike, the source gives them in different places.

Columns and labels:
[1] = target: TACE (TNF-α converting enzyme); settings: read-out: IC50, ACE2 shedding
SARS-CoV [2] = system: SARS-CoV
[3] = acute toxicity, mice
cathepsin L = cathepsin L inhibition assay
MERS-CoV [4] = system: MERS-CoV
SARS-CoV [5] = system: SARS-CoV; remark: listed apart in the source
MERS-CoV [6] = system: MERS-CoV; remark: listed apart in the source
SARS-CoV [7] = system: SARS-CoV; remark: listed apart in the source
HCoV-OC43 [8] = settings: HCoV-OC43 pseudovirus
HCoV-NL63 = HCoV-NL63 pseudovirus
HCoV-229E [9] = settings: HCoV-229E pseudovirus
[10] = not given; remark: listed apart in the source
HCoV-OC43 [11] = settings: 5 mg/kg
MERS-CoV [12] = settings: mouse, in vivo
SARS-CoV-2 [13] = settings: SARS-CoV-2 pseudovirus assay
[14] = system: SARS-CoV-2 S-mediated membrane fusion; settings: fusion inhibitory assay
furin = settings: HEK293 cells
TMPRSS2 = settings: by inhibiting TMPRSS2 activity
SARS-CoV-2 [15] = system: SARS-CoV-2
[16] = system: human aortic endothelial cells; settings: 100 μM
MERS-CoV [17] = system: MERS-CoV; remark: listed apart in the source
ACE2 [18] = target: ACE2
ACE2 [19] = system: ACE2; remark: listed apart in the source
ACE2 [20] = settings: read-out: IC50, ACE2 catalytic activity
HCoV-229E [21] = system: HCoV-229E

For Teicoplanin, the IC50 (SARS-CoV-2 pseudoviruses) is given as 1660 nM.
In the case of `CC(C)CC(CC(=O)NO)C(=O)NC(Cc1ccc2ccccc2c1)C(=O)NC(C)C(N)=O` (stereo not shown) [TAPI-0 (7), TAPI-0], the IC50 [1] is listed as 100 nM.
For `CN1CCN(C(=O)N[C@@H](Cc2ccccc2)C(=O)N[C@H](/C=C/S(=O)(=O)c2ccccc2)CCc2ccccc2)CC1` [K11777 (21), K11777], the IC50 (coronaviruses) is listed as 0.68 to 46.1 nM.
For `CCN(CC)CCCC(C)Nc1ccnc2cc(Cl)ccc12` (stereo not shown) [Chloroquine (4), Chloroquine], the ED50 (SARS-CoV [2]) is given as 4400 nM, the “toxicity that could be caused” value is given as “ventricular arrhythmias,[72] QT prolongation,[72],[73] retinopathy,[74] and other cardiac-related toxicity” and the IC50 (coronaviruses) is given as 1130 to 4400 nM.
For `O=C(OC[C@H]1O[C@@H](OC(=O)c2cc(O)c(O)c(O)c2)[C@H](OC(=O)c2cc(O)c(O)c(O)c2)[C@H](OC(=O)c2cc(O)c(O)c(O)c2)[C@@H]1O)c1cc(O)c(O)c(O)c1` [TGG (12), TGG], the 50% lethal dose [3] is listed as ~ 456 mg/kg.
In the case of `CCc1ccccc1NC(=O)CSC(=O)NNC(=O)[C@H](Cc1c[nH]c2ccccc12)NC(=O)OC(C)(C)C` [CID 16725315 (18), CID 16725315], the IC50 (cathepsin L) is given as 56 nM.
In the case of `CCN(CCO)CCCC(C)Nc1ccnc2cc(Cl)ccc12` (stereo not shown) [Hydroxychloroquine (5), Hydroxychloroquine], the “toxicity that could be caused” value is listed as “ventricular arrhythmias,[72] QT prolongation,[72],[73] retinopathy,[74] and other cardiac-related toxicity”.
In the case of `CN1CCN(CCOc2cc(OC3CCOCC3)c3c(Nc4c(Cl)ccc5c4OCO5)ncnc3c2)CC1` [saracatinib (30), saracatinib], the IC50 (MERS-CoV [4]) is given as 2900 nM and the IC50 (coronaviruses) is given as 2400 to 5100 nM.
For `COc1ccc(S(=O)(=O)O)cc1/N=N/c1c(S(=O)(=O)O)cc2cc(Nc3nc(Nc4ccccc4)nc(Nc4cc(C)c(/N=N/c5cc(S(=O)(=O)O)cc6cc(S(=O)(=O)O)cc(O)c56)cc4OC)n3)ccc2c1O` [ADS-J1 (15), ADS-J1], the IC50 (SARS-CoV [5]) is listed as 3890 nM, the IC50 (MERS-CoV [6]) is listed as 600 nM and the IC50 (coronaviruses) is listed as 600 to 3890 nM.
For MDL28170 [MDL28170 (17)], the EC50 (SARS-CoV [7]) is listed as about 100 nM.
In the case of `O=c1cc(-c2ccc(O)c(O)c2)oc2cc(O)cc(O)c12` [luteolin (13), luteolin], the 50% lethal dose [3] is listed as 232.2 mg/kg.
For EK1, the IC50 (HCoV-OC43 [8]) is given as 1810 nM, the IC50 (HCoV-NL63) is given as 6020 nM and the IC50 (HCoV-229E [9]) is given as 3350 nM. The “cytotoxic concentration (not cytotoxic up to)” value [10] was over 1 mM, the “protection of mice from HCoV-OC43” value (HCoV-OC43 [11]) was “nearly completely protected” and the “protection of mice against MERS-CoV infection” value (MERS-CoV [12]) was “nearly completely protected”. For the same compound, the IC50 (SARS-CoV-2 [13]) was 2380 nM and the IC50 [14] was 190 nM.
In the case of `CC(C)(C)[C@H](NC(=O)[C@H](CCONC(=N)N)NC(=O)Cc1ccc(CNC(=N)N)cc1)C(=O)N[C@@H](CCONC(=N)N)C(=O)NCc1ccc(C(=N)N)cc1` [MI-1851 (24), MI-1851], the “proteolytic processing of SARS-CoV-2 S protein by endogenous furin” value (furin) is listed as “could prevent proteolytic processing of the S protein”.
For `CN(C)C(=O)COC(=O)Cc1ccc(OC(=O)c2ccc(NC(=N)N)cc2)cc1` [Camostat (22), Camostat], the “concentration preventing SARS-CoV infections” value (TMPRSS2) is given as 10 µM and the “viral entry of SARS-CoV-2” value (SARS-CoV-2 [15]) is given as “could prevent the viral entry of SARS-CoV-2”.
In the case of `CC(C)(C)OC(=O)N[C@@H](Cc1c[nH]c2ccccc12)C(=O)NNC(=O)OCC(=O)N1CCCc2ccccc21` [CID23631927 (19), CID 23631927], the IC50 (cathepsin L) is given as 6.9 nM and the toxicity [16] is given as “did not show any sign of toxicity”.
For `Cc1nc(Nc2ncc(C(=O)Nc3c(C)cccc3Cl)s2)cc(N2CCN(CCO)CC2)n1` [dasatinib (29), dasatinib], the IC50 (MERS-CoV [17]) is listed as 5400 nM and the IC50 (coronaviruses) is listed as 2100 to 5400 nM.
In the case of DX600, the Ki (ACE2 [18]) is listed as 2.8 nM, the “inhibition of ACE activity” value (ACE) is listed as “did not inhibit ACE activity” and the stability (ACE2 [19]) is listed as “chemically stable and not hydrolyzable by ACE2”.
In the case of `NCCNCCN1CC1` [NAAE (3), N-(2-amino-ethyl)-1 aziridine-ethanamine], the IC50 (ACE2 [20]) is given as 57000 nM.
In the case of `O=C(NC(Cc1ccccc1)C(=O)N1CCC(O)(c2ccc(Br)cc2)CC1)c1ccccc1` (stereo not shown) [K22 (2), K22], the IC50 (HCoV-229E [21]) is listed as 700 nM.
In the case of `CCC[C@@H]([C@@H](CC(C)C)C(=O)N[C@@H](CCCCNC(=O)OCc1ccccc1)C(=O)Nc1nccs1)N(O)C=O` [GW280264X (6), GW280264X], the “concentration reducing shedding of ACE2” value (ADAM17) is given as 1 nM.
